Data taken from ChEMBL document CHEMBL1201862, “PubChem BioAssay data set” (2004).
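Growth conditions: 96-well plates. Treatment: test compound, 48 hours, 5 concentrations. Analysis: linear interpolation between bracketing concentrations; unreached endpoints set to highest concentration. Abbreviation: GI50, concentration required for 50% inhibition of growth.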 The source made the active and inactive calls. Rule as the data show it: active = GI50 up to about 1.1 µM and inactive = higher.

Tests used:
Assay in all cases: DTP human tumour cell line panel, 48 h
SF-268 = system: SF-268
OVCAR-8 = system: OVCAR-8
SNB-75 = system: SNB-75
SF-295 = system: SF-295
IGROV-1 = system: IGROV-1
M14 = system: M14
TK-10 = system: TK-10
BT-549 = system: BT-549
MOLT-4 = system: MOLT-4
PC-3 = system: PC-3
CCRF-CEM = system: CCRF-CEM
DU-145 = system: DU-145
786-0 = system: 786-0
KM12 = system: KM12
NCI-H460 = system: NCI-H460
ACHN = system: ACHN
NCI-H23 = system: NCI-H23
T47D = system: T47D
SF-539 = system: SF-539
Malme-3M = system: Malme-3M
NCI-H522 = system: NCI-H522
UACC-257 = system: UACC-257
LOX IMVI = system: LOX IMVI
SK-MEL-28 = system: SK-MEL-28
HOP-62 = system: HOP-62
NCI-H226 = system: NCI-H226
MDA-MB-435 = system: MDA-MB-435
COLO 205 = system: COLO 205
HCC 2998 = system: HCC 2998
OVCAR-5 = system: OVCAR-5
HT-29 = system: HT-29
OVCAR-3 = system: OVCAR-3
A498 = system: A498
RXF 393 = system: RXF 393
EKVX = system: EKVX
K562 = system: K562
SW-620 = system: SW-620
HOP-92 = system: HOP-92
SNB-19 = system: SNB-19
HCT-116 = system: HCT-116
HL-60 = system: HL-60
OVCAR-4 = system: OVCAR-4
UACC-62 = system: UACC-62
Hs-578T = system: Hs-578T
UO-31 = system: UO-31
SR = system: SR
U-251 = system: U-251
MDA-N = system: MDA-N
RPMI-8226 = system: RPMI-8226
MCF7 = system: MCF7
SN12C = system: SN12C
SK-OV-3 = system: SK-OV-3
MDA-MB-231 = system: MDA-MB-231
SK-MEL-5 = system: SK-MEL-5
A549 = system: A549
HCT-15 = system: HCT-15
CAKI-1 = system: CAKI-1
SK-MEL-2 = system: SK-MEL-2

## Nc1ccc(C(=O)Nn2c(-c3ccccc3)nc3ccccc3c2=O)cc1
SF-268
  GI50: > 100 µM (inactive)
OVCAR-8
  GI50: > 100 µM (inactive)
SNB-75
  GI50: 89.7 µM (inactive)
SF-295
  GI50: > 100 µM (inactive)
IGROV-1
  GI50: > 100 µM (inactive)
M14
  GI50: > 100 µM (inactive)
TK-10
  GI50: > 100 µM (inactive)
BT-549
  GI50: > 100 µM (inactive)
MOLT-4
  GI50: > 100 µM (inactive)
PC-3
  GI50: > 100 µM (inactive)
CCRF-CEM
  GI50: > 100 µM (inactive)
DU-145
  GI50: > 100 µM (inactive)
786-0
  GI50: > 100 µM (inactive)
KM12
  GI50: > 100 µM (inactive)
NCI-H460
  GI50: > 100 µM (inactive)
ACHN
  GI50: > 100 µM (inactive)
NCI-H23
  GI50: > 100 µM (inactive)
T47D
  GI50: > 100 µM (inactive)
SF-539
  GI50: > 100 µM (inactive)
Malme-3M
  GI50: > 100 µM (inactive)
NCI-H522
  GI50: > 100 µM (inactive)
UACC-257
  GI50: > 100 µM (inactive)
LOX IMVI
  GI50: > 100 µM (inactive)
SK-MEL-28
  GI50: > 100 µM (inactive)
HOP-62
  GI50: > 100 µM (inactive)
NCI-H226
  GI50: > 100 µM (inactive)
MDA-MB-435
  GI50: > 100 µM (inactive)
COLO 205
  GI50: > 100 µM (inactive)
HCC 2998
  GI50: > 100 µM (inactive)
OVCAR-5
  GI50: > 100 µM (inactive)
HT-29
  GI50: > 100 µM (inactive)
OVCAR-3
  GI50: > 100 µM (inactive)
A498
  GI50: 32.3 µM (inactive)
RXF 393
  GI50: > 100 µM (inactive)
EKVX
  GI50: > 100 µM (inactive)
K562
  GI50: > 100 µM (inactive)
SW-620
  GI50: > 100 µM (inactive)
HOP-92
  GI50: > 100 µM (inactive)
SNB-19
  GI50: > 100 µM (inactive)
HCT-116
  GI50: > 100 µM (inactive)
HL-60
  GI50: > 100 µM (inactive)
OVCAR-4
  GI50: > 100 µM (inactive)
UACC-62
  GI50: > 100 µM (inactive)
Hs-578T
  GI50: 14.1 µM (inactive)
UO-31
  GI50: > 100 µM (inactive)
SR
  GI50: > 100 µM (inactive)
U-251
  GI50: > 100 µM (inactive)
MDA-N
  GI50: > 100 µM (inactive)
RPMI-8226
  GI50: > 100 µM (inactive)
MCF7
  GI50: > 100 µM (inactive)
SN12C
  GI50: > 100 µM (inactive)
SK-OV-3
  GI50: > 100 µM (inactive)
MDA-MB-231
  GI50: > 100 µM (inactive)
SK-MEL-5
  GI50: > 100 µM (inactive)
A549
  GI50: > 100 µM (inactive)

## COc1ccc(-c2c3c([nH]c(=S)c2C#N)CC(C)(C)CC3=O)cc1
SF-268
  GI50: > 100 µM (inactive)
OVCAR-8
  GI50: > 100 µM (inactive)
SF-295
  GI50: > 100 µM (inactive)
IGROV-1
  GI50: > 100 µM (inactive)
M14
  GI50: > 100 µM (inactive)
TK-10
  GI50: > 100 µM (inactive)
BT-549
  GI50: > 100 µM (inactive)
MOLT-4
  GI50: > 100 µM (inactive)
PC-3
  GI50: > 100 µM (inactive)
CCRF-CEM
  GI50: 56.2 µM (inactive)
DU-145
  GI50: > 100 µM (inactive)
786-0
  GI50: > 100 µM (inactive)
KM12
  GI50: > 100 µM (inactive)
NCI-H460
  GI50: > 100 µM (inactive)
HCT-15
  GI50: > 100 µM
ACHN
  GI50: > 100 µM (inactive)
NCI-H23
  GI50: > 100 µM (inactive)
T47D
  GI50: 59.6 µM (inactive)
SF-539
  GI50: > 100 µM (inactive)
Malme-3M
  GI50: > 100 µM (inactive)
CAKI-1
  GI50: > 100 µM (inactive)
NCI-H522
  GI50: 36.4 µM (inactive)
UACC-257
  GI50: > 100 µM (inactive)
LOX IMVI
  GI50: > 100 µM (inactive)
SK-MEL-28
  GI50: > 100 µM (inactive)
HOP-62
  GI50: > 100 µM (inactive)
NCI-H226
  GI50: > 100 µM (inactive)
HCC 2998
  GI50: > 100 µM (inactive)
OVCAR-5
  GI50: > 100 µM (inactive)
HT-29
  GI50: > 100 µM (inactive)
OVCAR-3
  GI50: > 100 µM (inactive)
A498
  GI50: 55.6 µM (inactive)
RXF 393
  GI50: > 100 µM (inactive)
EKVX
  GI50: > 100 µM (inactive)
K562
  GI50: 61.7 µM (inactive)
SW-620
  GI50: > 100 µM (inactive)
HOP-92
  GI50: > 100 µM (inactive)
SNB-19
  GI50: > 100 µM (inactive)
HCT-116
  GI50: > 100 µM (inactive)
HL-60
  GI50: > 100 µM (inactive)
OVCAR-4
  GI50: > 100 µM (inactive)
UACC-62
  GI50: > 100 µM (inactive)
Hs-578T
  GI50: > 100 µM (inactive)
UO-31
  GI50: > 100 µM (inactive)
SR
  GI50: > 100 µM (inactive)
U-251
  GI50: > 100 µM (inactive)
MDA-N
  GI50: > 100 µM (inactive)
RPMI-8226
  GI50: > 100 µM (inactive)
MCF7
  GI50: > 100 µM (inactive)
SN12C
  GI50: > 100 µM (inactive)
SK-MEL-2
  GI50: > 100 µM (inactive)
MDA-MB-231
  GI50: > 100 µM (inactive)
SK-MEL-5
  GI50: > 100 µM (inactive)
A549
  GI50: > 100 µM (inactive)
